Results from the supplement of paper PMC10307832.

Columns and labels:
Test in all cases: relative viability (nuclei count vs DMSO), 5 days (fraction); higher = more cells survive
Venetoclax + Tozasertib = compound: CC1(C)CCC(CN2CCN(c3ccc(C(=O)NS(=O)(=O)c4ccc(NCC5CCOCC5)c([N+](=O)[O-])c4)c(Oc4cnc5[nH]ccc5c4)c3)CC2)=C(c2ccc(Cl)cc2)C1 [Venetoclax] + Cc1cc(Nc2cc(N3CCN(C)CC3)nc(Sc3ccc(NC(=O)C4CC4)cc3)n2)n[nH]1 [Tozasertib] (partner 0.1 µM)
How it was run: (§1)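 One day after seeding in 1536-well plates, lung cancer cell lines were dosed by pin tool. Dosing was either single-drug or a fixed anchor-drug dose plus five library-drug doses (not always all listed) in √10 steps. After 5 days, nuclei were stained in one fix-and-stain step and counted on 4× images, and relative viability is the nuclei count of treated wells over that of vehicle wells, given as the median of duplicate plates.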

Venetoclax + AZD7762 = compound: CC1(C)CCC(CN2CCN(c3ccc(C(=O)NS(=O)(=O)c4ccc(NCC5CCOCC5)c([N+](=O)[O-])c4)c(Oc4cnc5[nH]ccc5c4)c3)CC2)=C(c2ccc(Cl)cc2)C1 [Venetoclax] + NC(=O)Nc1cc(-c2cccc(F)c2)sc1C(=O)N[C@H]1CCCNC1 [AZD7762] (partner 0.2 µM)
How it was run: as §1

Venetoclax + Pemetrexed = compound: CC1(C)CCC(CN2CCN(c3ccc(C(=O)NS(=O)(=O)c4ccc(NCC5CCOCC5)c([N+](=O)[O-])c4)c(Oc4cnc5[nH]ccc5c4)c3)CC2)=C(c2ccc(Cl)cc2)C1 [Venetoclax] + Nc1nc2[nH]cc(CCc3ccc(C(=O)N[C@@H](CCC(=O)O)C(=O)O)cc3)c2c(=O)[nH]1 [Pemetrexed] (partner 0.2 µM)
How it was run: as §1

Selumetinib + Phenformin = compound: Cn1cnc2c(F)c(Nc3ccc(Br)cc3Cl)c(C(=O)NOCCO)cc21 [Selumetinib] + N=C(N)NC(=N)NCCc1ccccc1 [Phenformin] (partner 250 µM)
How it was run: as §1

Cell Line: NCI-H522
- relative viability (Venetoclax + Tozasertib; first compound 0.01 µM): 0.605
- relative viability (Venetoclax + Tozasertib; first compound 0.03162 µM): 0.481
- relative viability (Venetoclax + Tozasertib; first compound 0.1 µM): 0.599
- relative viability (Venetoclax + Tozasertib; first compound 0.3162 µM): 0.555
- relative viability (Venetoclax + Tozasertib; first compound 1 µM): 0.437
- relative viability (Venetoclax + AZD7762; first compound 0.01 µM): 1.01
- relative viability (Venetoclax + AZD7762; first compound 0.03162 µM): 0.769
- relative viability (Venetoclax + AZD7762; first compound 0.1 µM): 0.85
- relative viability (Venetoclax + AZD7762; first compound 0.3162 µM): 0.923
- relative viability (Venetoclax + AZD7762; first compound 1 µM): 0.689
- relative viability (Venetoclax + Pemetrexed; first compound 0.01 µM): 1.13
- relative viability (Venetoclax + Pemetrexed; first compound 0.03162 µM): 1.01
- relative viability (Venetoclax + Pemetrexed; first compound 0.1 µM): 0.879
- relative viability (Venetoclax + Pemetrexed; first compound 0.3162 µM): 1.19
- relative viability (Venetoclax + Pemetrexed; first compound 1 µM): 0.759
- relative viability (Selumetinib + Phenformin; first compound 0.02 µM): 0.641
- relative viability (Selumetinib + Phenformin; first compound 0.06325 µM): 0.556
- relative viability (Selumetinib + Phenformin; first compound 0.2 µM): 0.635
- relative viability (Selumetinib + Phenformin; first compound 0.6325 µM): 0.609

Cell Line: NCI-H596
- relative viability (Venetoclax + Tozasertib; first compound 0.01 µM): 1.05
- relative viability (Venetoclax + Tozasertib; first compound 0.03162 µM): 0.74
- relative viability (Venetoclax + Tozasertib; first compound 0.1 µM): 0.966
- relative viability (Venetoclax + Tozasertib; first compound 0.3162 µM): 0.862
- relative viability (Venetoclax + Tozasertib; first compound 1 µM): 0.847
- relative viability (Venetoclax + AZD7762; first compound 0.01 µM): 1.12
- relative viability (Venetoclax + AZD7762; first compound 0.03162 µM): 0.975
- relative viability (Venetoclax + AZD7762; first compound 0.1 µM): 1.27
- relative viability (Venetoclax + AZD7762; first compound 0.3162 µM): 1.12
- relative viability (Venetoclax + AZD7762; first compound 1 µM): 1.2
- relative viability (Venetoclax + Pemetrexed; first compound 0.01 µM): 0.473
- relative viability (Venetoclax + Pemetrexed; first compound 0.03162 µM): 0.495
- relative viability (Venetoclax + Pemetrexed; first compound 0.1 µM): 0.461
- relative viability (Venetoclax + Pemetrexed; first compound 0.3162 µM): 0.488
- relative viability (Venetoclax + Pemetrexed; first compound 1 µM): 0.486
- relative viability (Selumetinib + Phenformin; first compound 0.02 µM): 0.894
- relative viability (Selumetinib + Phenformin; first compound 0.06325 µM): 0.695
- relative viability (Selumetinib + Phenformin; first compound 0.2 µM): 0.751
- relative viability (Selumetinib + Phenformin; first compound 0.6325 µM): 0.564

Cell Line: NCI-H647
- relative viability (Venetoclax + Tozasertib; first compound 0.01 µM): 0.228
- relative viability (Venetoclax + Tozasertib; first compound 0.03162 µM): 0.225
- relative viability (Venetoclax + Tozasertib; first compound 0.1 µM): 0.361
- relative viability (Venetoclax + Tozasertib; first compound 0.3162 µM): 0.22
- relative viability (Venetoclax + Tozasertib; first compound 1 µM): 0.262
- relative viability (Venetoclax + AZD7762; first compound 0.01 µM): 0.402
- relative viability (Venetoclax + AZD7762; first compound 0.03162 µM): 0.429
- relative viability (Venetoclax + AZD7762; first compound 0.1 µM): 0.364
- relative viability (Venetoclax + AZD7762; first compound 0.3162 µM): 0.539
- relative viability (Venetoclax + AZD7762; first compound 1 µM): 0.394
- relative viability (Venetoclax + Pemetrexed; first compound 0.01 µM): 0.164
- relative viability (Venetoclax + Pemetrexed; first compound 0.03162 µM): 0.192
- relative viability (Venetoclax + Pemetrexed; first compound 0.1 µM): 0.206
- relative viability (Venetoclax + Pemetrexed; first compound 0.3162 µM): 0.178
- relative viability (Venetoclax + Pemetrexed; first compound 1 µM): 0.178
- relative viability (Selumetinib + Phenformin; first compound 0.02 µM): 0.592
- relative viability (Selumetinib + Phenformin; first compound 0.06325 µM): 0.488
- relative viability (Selumetinib + Phenformin; first compound 0.2 µM): 0.512
- relative viability (Selumetinib + Phenformin; first compound 0.6325 µM): 0.414

Cell Line: NCI-H650
- relative viability (Venetoclax + Tozasertib; first compound 0.01 µM): 0.682
- relative viability (Venetoclax + Tozasertib; first compound 0.03162 µM): 0.719
- relative viability (Venetoclax + Tozasertib; first compound 0.1 µM): 0.685
- relative viability (Venetoclax + Tozasertib; first compound 0.3162 µM): 0.697
- relative viability (Venetoclax + Tozasertib; first compound 1 µM): 0.674
- relative viability (Venetoclax + AZD7762; first compound 0.01 µM): 0.986
- relative viability (Venetoclax + AZD7762; first compound 0.03162 µM): 1.1
- relative viability (Venetoclax + AZD7762; first compound 0.1 µM): 0.872
- relative viability (Venetoclax + AZD7762; first compound 0.3162 µM): 1.22
- relative viability (Venetoclax + AZD7762; first compound 1 µM): 0.899
- relative viability (Venetoclax + Pemetrexed; first compound 0.01 µM): 0.911
- relative viability (Venetoclax + Pemetrexed; first compound 0.03162 µM): 1.02
- relative viability (Venetoclax + Pemetrexed; first compound 0.1 µM): 1.03
- relative viability (Venetoclax + Pemetrexed; first compound 0.3162 µM): 0.89
- relative viability (Venetoclax + Pemetrexed; first compound 1 µM): 0.836
- relative viability (Selumetinib + Phenformin; first compound 0.02 µM): 0.521
- relative viability (Selumetinib + Phenformin; first compound 0.06325 µM): 0.407
- relative viability (Selumetinib + Phenformin; first compound 0.2 µM): 0.551
- relative viability (Selumetinib + Phenformin; first compound 0.6325 µM): 0.54

Cell Line: NCI-H838
- relative viability (Venetoclax + Tozasertib; first compound 0.01 µM): 0.254
- relative viability (Venetoclax + Tozasertib; first compound 0.03162 µM): 0.246
- relative viability (Venetoclax + Tozasertib; first compound 0.1 µM): 0.303
- relative viability (Venetoclax + Tozasertib; first compound 0.3162 µM): 0.238
- relative viability (Venetoclax + Tozasertib; first compound 1 µM): 0.239
- relative viability (Venetoclax + AZD7762; first compound 0.01 µM): 0.93
- relative viability (Venetoclax + AZD7762; first compound 0.03162 µM): 0.999
- relative viability (Venetoclax + AZD7762; first compound 0.1 µM): 0.877
- relative viability (Venetoclax + AZD7762; first compound 0.3162 µM): 0.923
- relative viability (Venetoclax + AZD7762; first compound 1 µM): 0.837
- relative viability (Venetoclax + Pemetrexed; first compound 0.01 µM): 0.246
- relative viability (Venetoclax + Pemetrexed; first compound 0.03162 µM): 0.261
- relative viability (Venetoclax + Pemetrexed; first compound 0.1 µM): 0.264
- relative viability (Venetoclax + Pemetrexed; first compound 0.3162 µM): 0.234
- relative viability (Venetoclax + Pemetrexed; first compound 1 µM): 0.24
- relative viability (Selumetinib + Phenformin; first compound 0.02 µM): 0.502
- relative viability (Selumetinib + Phenformin; first compound 0.06325 µM): 0.481
- relative viability (Selumetinib + Phenformin; first compound 0.2 µM): 0.505
- relative viability (Selumetinib + Phenformin; first compound 0.6325 µM): 0.474

Cell Line: NCI-H1355
- relative viability (Venetoclax + Tozasertib; first compound 0.01 µM): 0.548
- relative viability (Venetoclax + Tozasertib; first compound 0.03162 µM): 0.62
- relative viability (Venetoclax + Tozasertib; first compound 0.1 µM): 0.482
- relative viability (Venetoclax + Tozasertib; first compound 0.3162 µM): 0.549
- relative viability (Venetoclax + Tozasertib; first compound 1 µM): 0.42
- relative viability (Venetoclax + AZD7762; first compound 0.01 µM): 0.723
- relative viability (Venetoclax + AZD7762; first compound 0.03162 µM): 0.733
- relative viability (Venetoclax + AZD7762; first compound 0.1 µM): 0.705
- relative viability (Venetoclax + AZD7762; first compound 0.3162 µM): 0.716
- relative viability (Venetoclax + AZD7762; first compound 1 µM): 0.652
- relative viability (Venetoclax + Pemetrexed; first compound 0.01 µM): 1.02
- relative viability (Venetoclax + Pemetrexed; first compound 0.03162 µM): 1.08
- relative viability (Venetoclax + Pemetrexed; first compound 0.1 µM): 1.01
- relative viability (Venetoclax + Pemetrexed; first compound 0.3162 µM): 1.08
- relative viability (Venetoclax + Pemetrexed; first compound 1 µM): 1.01
- relative viability (Selumetinib + Phenformin; first compound 0.02 µM): 0.435
- relative viability (Selumetinib + Phenformin; first compound 0.06325 µM): 0.43
- relative viability (Selumetinib + Phenformin; first compound 0.2 µM): 0.391
- relative viability (Selumetinib + Phenformin; first compound 0.6325 µM): 0.373

Cell Line: NCI-H1395
- relative viability (Venetoclax + Tozasertib; first compound 0.01 µM): 0.851
- relative viability (Venetoclax + Tozasertib; first compound 0.03162 µM): 0.85
- relative viability (Venetoclax + Tozasertib; first compound 0.1 µM): 0.705
- relative viability (Venetoclax + Tozasertib; first compound 0.3162 µM): 0.782
- relative viability (Venetoclax + Tozasertib; first compound 1 µM): 0.762
- relative viability (Venetoclax + AZD7762; first compound 0.01 µM): 0.402
- relative viability (Venetoclax + AZD7762; first compound 0.03162 µM): 0.442
- relative viability (Venetoclax + AZD7762; first compound 0.1 µM): 0.392
- relative viability (Venetoclax + AZD7762; first compound 0.3162 µM): 0.434
- relative viability (Venetoclax + AZD7762; first compound 1 µM): 0.405
- relative viability (Venetoclax + Pemetrexed; first compound 0.01 µM): 0.823
- relative viability (Venetoclax + Pemetrexed; first compound 0.03162 µM): 0.862
- relative viability (Venetoclax + Pemetrexed; first compound 0.1 µM): 0.764
- relative viability (Venetoclax + Pemetrexed; first compound 0.3162 µM): 0.95
- relative viability (Venetoclax + Pemetrexed; first compound 1 µM): 0.819
- relative viability (Selumetinib + Phenformin; first compound 0.02 µM): 0.447
- relative viability (Selumetinib + Phenformin; first compound 0.06325 µM): 0.42
- relative viability (Selumetinib + Phenformin; first compound 0.2 µM): 0.456
- relative viability (Selumetinib + Phenformin; first compound 0.6325 µM): 0.475

Cell Line: NCI-H1437
- relative viability (Venetoclax + Tozasertib; first compound 0.01 µM): 0.392
- relative viability (Venetoclax + Tozasertib; first compound 0.03162 µM): 0.426
- relative viability (Venetoclax + Tozasertib; first compound 0.1 µM): 0.408
- relative viability (Venetoclax + Tozasertib; first compound 0.3162 µM): 0.376
- relative viability (Venetoclax + Tozasertib; first compound 1 µM): 0.336
- relative viability (Venetoclax + AZD7762; first compound 0.01 µM): 1.14
- relative viability (Venetoclax + AZD7762; first compound 0.03162 µM): 1.14
- relative viability (Venetoclax + AZD7762; first compound 0.1 µM): 1.11
- relative viability (Venetoclax + AZD7762; first compound 0.3162 µM): 1.08
- relative viability (Venetoclax + AZD7762; first compound 1 µM): 1.07
- relative viability (Venetoclax + Pemetrexed; first compound 0.01 µM): 0.309
- relative viability (Venetoclax + Pemetrexed; first compound 0.03162 µM): 0.316
- relative viability (Venetoclax + Pemetrexed; first compound 0.1 µM): 0.328
- relative viability (Venetoclax + Pemetrexed; first compound 0.3162 µM): 0.309
- relative viability (Venetoclax + Pemetrexed; first compound 1 µM): 0.308
- relative viability (Selumetinib + Phenformin; first compound 0.02 µM): 0.269
- relative viability (Selumetinib + Phenformin; first compound 0.06325 µM): 0.232
- relative viability (Selumetinib + Phenformin; first compound 0.2 µM): 0.216
- relative viability (Selumetinib + Phenformin; first compound 0.6325 µM): 0.243
